≈ marks a conversion by molar mass, not a printed value.
Tests used:
[1] = Cytotoxicity, flow cytometry viability assay with propidium iodide; type: cell-based, human; details: human, Jurkat cells (human lymphocytic leukaemia, ATCC TIB-152), 24 h treatment, average of three experiments, read-out: IC50, cytotoxicity on the human Jurkat cell line
Description: The cytotoxicity of the compounds was assessed via flow cytometry with a viability assay using propidium iodide (PI), a DNA-binding fluorescent probe not permeant to live cells, which is commonly used to detect dead cells in a population. The human lymphocytic leukaemia Jurkat cell line (ATCC TIB-152) was obtained from the American Type Cell Culture (Sigma-Aldrich) and grown in suspension in an RPMI 1640 medium (Thermo Fisher Scientific, Waltham, MA, USA) supplemented with L-glutamine, antibiotics, and 10% heat-inactivated foetal calf serum (FCS, Thermo Fisher Scientific, Waltham, MA, USA). For the viability assay, cells were seeded in plastic 96-well plates at […] in an RPMI 1640 medium supplemented with 5% FCS. The cells were treated for 24 h with a range of concentrations of the test compounds or with the same volume of phosphate buffer (PBS) in control wells. After incubation, cell suspensions were washed, resuspended in 400 μL fresh medium, and incubated for 5 min at room temperature in the dark with 3.75 μM PI (Sigma-Aldrich). Cell viability was determined via flow cytometry using a Gallios flow cytometer (Beckman Coulter). PI fluorescence was excited with an argon-ion laser at 488 nm and collected through a 620/630 nm band-pass emission. Cellular events were discriminated from debris using forward scatter (FS) and side scatter (SS) signals. Cell aggregates were excluded from analysis based on FS-integral and FS-peak. The gates applied for population discrimination were set manually based on control samples. For each sample, 10,000 events were collected. For further analysis, the cytometric data were exported to Kaluza 2.1 software (Beckman Coulter, Brea, CA, USA). Dead cells were identified and quantified as PI-positive events. The cytotoxic potency of test compounds was quantified using their IC50 values, i.e., the compound concentration at which cell viability is inhibited by 50%, as calculated via curve fitting and determined with the correlation coefficient (R2) using GraphPad Prism 9.0 software. Experiments were carried out in triplicate.

[2] = Potentiometric titrations in water (protonation constants); type: physicochemical; details: for log β (cumulative protonation constant): calculated as log β = ∑j log KHjL; for n, average number of positive charges at pH 7.4: calculated from protonation constants
Description: The potentiometric titrations were carried out at 298.1 ± 0.1 K using NaCl 0.15 M as a supporting electrolyte. The experimental procedure (burette, potentiometer, cell, stirrer, microcomputer, etc.) has been fully described elsewhere. The acquisition of the EMF data was performed with the computer program PASAT [50]. The reference electrode was a Ag/AgCl electrode in a saturated KCl solution. The glass electrode was calibrated as a hydrogen-ion concentration probe via the titration of previously standardised amounts of HCl with CO2-free NaOH solutions and the equivalent point determined using the Gran method, which provides the standard potential, E^θ′, and the ionic product of water (pKw = 13.73(1)).
The computer program […] was used to calculate the protonation constants. The pH range investigated was 2.5–11.0, and the concentration of the ligands ranged from 5 × 10^−4 to 5 × 10^−[…]. The different titration curves for each system (at least two) were treated either as a single set or as separated curves without significant variations in the values of the stability constants. Finally, the sets of data were merged and treated simultaneously to give the final stability constants.

[3] = test system: Escherichia coli JM101; experiment: MIC, microdilution in culture medium, E. coli; type: cell-based; details: 20 h, 37 °C, average of at least three experiments; for MIC: Escherichia coli, JM101, read-out: MIC, Bacteria, E. coli JM101
Excerpt: The microorganisms used for the susceptibility tests were the bacteria Escherichia coli JM101 and Staphylococcus aureus BHI, and the yeast Saccharomyces cerevisiae strains BY4741 (MAT a his3Δ1 leu2Δ0 met15Δ0 ura3Δ0 (EUROSCARF)) carrying YEplac195 (from EUROSCARF) or YEPlac195-PDR5 (provided by Ayse Banu Demir, Izmir University of Economics, Turkey) plasmids.
Bacterial strains were usually maintained and grown in an LB medium (0.5% (w/v) yeast extract, 1% (w/v) bactotryptone, and 1% (w/v) NaCl) at 37 °C. For MIC (minimal inhibitory concentration) and MMC (minimal microbicidal concentration) assays, and for the determination of synergies, overnight growth was carried out in 2% (w/v) bactopeptone (BP), and then the cultures were diluted and incubated for several hours in 2% (w/v) BP for ensuring logarithmic growth. Yeast strains were grown in an SC-ura medium (0.17% (w/v) yeast nitrogen base without amino acids and ammonium sulphate, 0.2% (w/v) drop-out without uracil, 0.5% (w/v) (NH4)2SO4, and 2% (w/v) glucose) at 30 °C. Liquid cultures were incubated with shaking (200 rpm). Solid media also contained 2% (w/v) agar.
For the analysis of the antimicrobial activity, the strategies and indications of Cushnie et al. were considered. The standardised method of microdilution in a culture medium was followed to determine the MIC [55]. In bacterial strains, serial dilutions of the compounds to be tested and the control antibiotics were prepared in phosphate buffer (20 mM, pH 7.4, 0.5 mL) and were mixed with a suspension of bacterial cells in a logarithmic growth phase (in 1% BP, 0.5 mL). The final OD600 of the whole solutions were 0.004 and 0.008 for E. coli and S. aureus cultures, respectively. After 20 h of incubation at 37 °C with shaking, the MIC was determined as the lowest concentration of each compound in which no visible bacterial growth was observed.

[4] = 298 K, 0.15 mol/dm^3 NaCl, error in last figure in parentheses

Compound | IC50 at 24 h [1] [µg/mL] | Stepwise protonation constant (log K), H2L + H ⇄ H3L [2, 4] | Stepwise protonation constant (log K), L + H ⇄ HL [2, 4] | Stepwise protonation constant (log K), LH + H ⇄ H2L [2, 4] | log β (cumulative protonation constant) ([2]; 298 K, 0.15 mol/dm^3 NaCl) | n, average number of positive charges at pH 7.4 [2] | MIC [3] [µg/mL] | Stepwise protonation constant (log K), H3L + H ⇄ H4L [2, 4] | Stepwise protonation constant (log K), H4L + H ⇄ H5L [2, 4] | Stepwise protonation constant (log K), H5L + H ⇄ H6L [2, 4] | MIC, Bacteria, E. coli JM101 [3] [µg/mL]
c1cc2nc(c1)CNCCN(CCNCc1ccc3c(c1)OCO3)CCNC2 [Compound 5a, 2-(3,6,9-triaza-1(2,6)-pyridinacyclodecaphane-6-yl)-N-(benzo[d][1,3]dioxol-5-ylmethyl)ethan-1-amine] | 37.8 (≈ 98.7 µM) | 7.30 (1) | 10.48 (1) | 8.78 (1) | 26.56 | 2.4 | 5 | – | – | – | –
Oc1ccccc1CNCCN1CCNCc2cccc(n2)CNCC1 [Compound 6a] | 98 (≈ 276 µM) | – | – | – | – | 1.91 | 2.5 | – | – | – | –
Oc1ccc(CNCCN2CCNCc3cccc(n3)CNCC2)cc1 [Compound 7a] | 951 (≈ 2670 µM) | – | – | – | 35.48 | 2.4 | 13 | – | – | – | –
c1cc2nc(c1)CNCCN(CCNCc1ccc3c(c1)CCO3)CCNC2 [Compound 8a, 2-(3,6,9-triaza-1(2,6)-pyridinacyclodecaphane-6-yl)-N-((2,3-dihydrobenzofuran-5-yl)methyl)ethan-1-amine] | 128 (≈ 335 µM) | 7.296 (4) | 9.943 (3) | 8.736 (3) | 26.17 | 2.4 | 15 | – | – | – | –
N^1-(benzo[d][1,3]dioxol-5-ylmethyl)-N^3-(2-((2-((3-((benzo[d][1,3]dioxol-5-ylmethyl)amino)propyl)amino)ethyl)(2-((3-(((2,3-dihydrobenzofuran-6-yl)methyl)amino)propyl)amino)ethyl)amino)ethyl)propane-1,3-diamine [Compound 4a] | – | 9.12 (1) | 10.95 (1) | 9.63 (1) | 51.60 | 4.5 | – | 8.07 (1) | 7.48 (1) | 6.35 (2) | 5

From paper PMC10675077, “Antimicrobial Properties of New Polyamines Conjugated with Oxygen-Containing Aromatic Functional Groups” (Molecules, 2023)
